From patent publication US20150352196A1, “Methods and Pharmaceutical Compositions for Prevention of Aging-Related Lesions” (INSERM (INSTITUT NATIONAL DE LA SANTÉ ET DE LA RECHERCHE …, priority 2012, published 2015)

Columns and labels:
Type in all cases: cell-based
[1] = system: mouse smooth muscle cells; test: mitogenic effect of IGF-1 on mouse smooth muscle cells in vitro; settings: IGF-1 stimulated
[2] = system: PI3kinase/Akt pathway; test: FOXO reporter in transfected HEK cells exposed to IGF-1; settings: HEK cells transfected with FOXO reporter
Excerpt: In addition, the inventors transfected HEK cells by a FOXO reporter measuring the activity of the Pl3kinase/Akt pathway downstream of IGF-1 receptor.

[3] = system: calpain; test: calpain activity assays in cell lines expressing IGF-1 receptor after exposure to IGF-1; settings: including immortalized podocytes
Excerpt: Inventors first focused their work on somatotropic axis and particularly IGF-1 receptor role in calpain activation. […] Calpain activity assays developed in the laboratory have been performed in several cell lines expressing IGF-1 receptor (podocyte lines, splenocytes, mesangial cells) after exposure to IGF-1.

| Substance | mitogenic effect of IGF-1 [1] | activity of the PI3kinase/Akt pathway downstream of IGF-1 receptor (FOXO reporter) [2] | calpain activity [3] |
| --- | --- | --- | --- |
| (2Z)-3-(4-iodophenyl)-2-mercapto-2-Propenoic acid, 3-(4-iodophenyl)-2-mercapto-(Z)-2-propenoic acid [PD-150606] | blunted partly but significantly | inhibited significantly | – |
| IGF-1: ligand of the IGF-1 receptor, somatotropic axis; used to stimulate cell lines | – | – | increase calpain activity in a dose- and time-dependent manner |
